Legend:
[1] = Cytotoxicity, LDH assay, HT29 cells; type: cell-based, human; details: human, HT29 colon adenocarcinoma cells, 24 h, mean ± SD of three, read-out: Cell viability HT29
Method: (§1) Cytotoxic activity was tested on human cancer and normal cells, grouped in three panels, namely: prostate, skin and gastrointestinal. The prostate panel consisted of prostate cancer cell lines Du145 (ATCC HTB-81) and PC3 (ATCC CRL-1435), and prostate epithelial cells PNT-2 (ECACC 95012613). Melanoma cell lines A375 (ATCC CRL-1619) and HTB140 (ATCC Hs 294T) together with skin keratinocytes HaCaT (obtained as a kind gift of prof. Marta Michalik, Department of Cell Biology, Jagiellonian University, Kraków, Poland) were included into the skin panel. The gastrointestinal panel of cells comprised colon cancer cell lines Caco-2 (ATCC HTB-37) and HT29 (ATCC HTB-38). Du145 cells were grown in Modified Eagle’s Medium with low (1.0 g/L) glucose concentration, HT29, PC3 and PNT-2 cells in Dulbecco’s Modified Eagle’s Media: F12 HAM Nutrient Mixture, Caco-2 in Modified Eagle’s Medium with NEAA (no-essential amino acids) while melanoma cells and keratinocytes were maintained in Modified Eagle’s Medium with high (4.5 g/L) glucose concentration. The culture media (all supplied by Sigma-Aldrich Co.; St. Louis, MO, USA) contained antibiotics and 10% fetal bovine serum (FBS). All cultures were maintained at 37 °C, in a humidified, 5% CO2 containing, atmosphere.
(§2) The examined triterpenes were diluted in the culture media from freshly made stock solutions in MeOH (10 mg/mL) to the working concentrations (from 0 to 100 μg/mL).
(§3) Cell viability was determined as it was described previously. Cells suspended in the nutrient medium were transferred into 96-well microtiter plates (density 1.5 × 10^4 per well), and preincubated for 24 h (37 °C, 5% CO2). Then, the culture medium was replaced with the medium containing different concentrations of 1 or 2 (1–100 μg/mL). After 24 h of incubation, viability of the cells was determined using colorimetric lactate dehydrogenase (LDH) assay, in comparison to the controls to which corresponding aliquots of MeOH diluted with culture media were added. Cells grown in the medium without the tested compounds were used as control I (negative) and the positive control (control II) was obtained by incubation of the cells in the medium containing 1% Triton X-100. LDH released from the damaged cells into the cell culture medium was quantified by measuring the absorbance at 490 nm using Synergy II Biotek (BioTek Instruments, Winooski, VT, USA) microplate reader. Cytotoxicities of the examined compounds were calculated as follows: [(absorbance of the tested sample − absorbance of control I)/(absorbance of control II − absorbance of control I)] × 100. Results were means of three independent measurements (± SD). Doxorubicin (Ebewe Pharma GmbH., Unterach, Austria) was used as a reference cytostatic drug. The IC50 values were determined by plotting the percentage viability of the cells versus concentration and the adequate calculations made using AAT Bioquest website program (https://www.aatbio.com/tools/ic50-calculator, accessed on 29 October 2021).

[2] = system: HT29 human colon adenocarcinoma cells; experiment: Cytotoxicity, LDH assay, HT29 cells; type: cell-based; details: Homo sapiens, HT-29; 24 h treatment, 5–100 μg/mL
Method: as §1, §2, §3

[3] = system: Caco-2 human colon adenocarcinoma cells; experiment: Cytotoxicity, LDH assay, Caco-2 cells; type: cell-based; details: Homo sapiens, Caco-2, 24 h, 24 h treatment, 5–100 μg/mL
Method: as §1, §2, §3

[4] = Cytotoxicity, LDH assay, Caco-2 cells; type: cell-based, human; details: human, Caco-2, 24 h, mean ± SD of three, read-out: Cell viability Caco-2
Method: as §1, §2, §3

[5] = Cytotoxicity, LDH assay, HTB140 cells; type: cell-based, human; details: human, HTB140 melanoma cells, 24 h, mean ± SD of three, read-out: Cell viability HTB140
Method: as §1, §2, §3

[6] = system: HTB140 human melanoma cells; experiment: Cytotoxicity, LDH assay, HTB140 cells; type: cell-based; details: Homo sapiens; 24 h treatment, 5–100 μg/mL
Method: as §1, §2, §3

[7] = Cytotoxicity, LDH assay, PNT-2 cells; type: cell-based, human; details: human, 24 h, mean ± SD of three, read-out: Cell viability PNT-2
Method: as §1, §2, §3

[8] = system: PNT-2 human normal prostate epithelium cells; experiment: Cytotoxicity, LDH assay, PNT-2 cells; type: cell-based; details: Homo sapiens, PNT2; 24 h treatment, 5–100 μg/mL
Method: as §1, §2, §3

[9] = Cytotoxicity, LDH assay, DU145 cells; type: cell-based, human; details: human, DU145 prostate carcinoma cells, 24 h, mean ± SD of three, read-out: Cell viability DU145
Method: as §1, §2, §3

[10] = system: DU145 human prostate carcinoma cells; experiment: Cytotoxicity, LDH assay, DU145 cells; type: cell-based; details: Homo sapiens, DU-145, 24 h, 24 h treatment, 5–100 μg/mL
Method: as §1, §2, §3

[11] = Cytotoxicity, LDH assay, HaCaT cells; type: cell-based, human; details: human, 24 h, mean ± SD of three, read-out: Cell viability HaCaT
Method: as §1, §2, §3

[12] = system: A375 human malignant melanoma cells; experiment: Cytotoxicity, LDH assay, A375 cells; type: cell-based; details: Homo sapiens, A-375; 24 h treatment, 5–100 μg/mL
Method: as §1, §2, §3

[13] = Cytotoxicity, LDH assay, A375 cells; type: cell-based, human; details: human, A375 malignant melanoma cells, 24 h, mean ± SD of three, read-out: Cell viability A375
Method: as §1, §2, §3

CC(=O)OC1CC2(C)C(C(OC(C)=O)CC3(C)C2C(O)C=C2C4C(C)C(C)(O)CC(OC(C)=O)C4(C)CCC23C)C(C)(C)C1O (stereo not drawn) [Compound 2, 2α,6β,22α-triacetoxy-urs-12-ene-3α,11α,20β-triol]
viability at 24 h, 5 μg/mL ([1]; 5 μg/mL): 95.76 ± 0.69% | viability at 24 h, 10 μg/mL ([1]; 10 μg/mL): 94.55 ± 0.84% | viability at 24 h, 20 μg/mL ([1]; 20 μg/mL): 90.05 ± 0.74% | viability at 24 h, 30 μg/mL ([1]; 30 μg/mL): 81.7 ± 1.56% | viability at 24 h, 40 μg/mL ([1]; 40 μg/mL): 74.8 ± 1.13% | viability at 24 h, 50 μg/mL ([1]; 50 μg/mL): 67.2 ± 1.25% | viability at 24 h, 100 μg/mL ([1]; 100 μg/mL): 56.9 ± 1.85% | IC50 [2]: > 100 µg/mL | IC50 [3]: > 50 µg/mL | viability at 24 h, 5 μg/mL ([4]; 5 μg/mL): 94.7 ± 1.42% | viability at 24 h, 10 μg/mL ([4]; 10 μg/mL): 88.4 ± 0.92% | viability at 24 h, 20 μg/mL ([4]; 20 μg/mL): 82 ± 1.69% | viability at 24 h, 30 μg/mL ([4]; 30 μg/mL): 74.7 ± 1.19% | viability at 24 h, 40 μg/mL ([4]; 40 μg/mL): 65.8 ± 1.25% | viability at 24 h, 50 μg/mL ([4]; 50 μg/mL): 61.1 ± 2.37% | viability at 24 h, 100 μg/mL ([4]; 100 μg/mL): 49.6 ± 1.49% | viability at 24 h, 5 μg/mL ([5]; 5 μg/mL): 97.48 ± 0.79% | viability at 24 h, 20 μg/mL ([5]; 20 μg/mL): 96.4 ± 0.83% | viability at 24 h, 30 μg/mL ([5]; 30 μg/mL): 94.3 ± 1.45% | viability at 24 h, 40 μg/mL ([5]; 40 μg/mL): 93.7 ± 1.11% | viability at 24 h, 50 μg/mL ([5]; 50 μg/mL): 92 ± 1.64% | viability at 24 h, 100 μg/mL ([5]; 100 μg/mL): 89.5 ± 1.4% | IC50 [6]: > 100 µg/mL | viability at 24 h, 100 μg/mL ([7]; PNT-2 normal prostate epithelium cells, 100 μg/mL): 93.56 ± 0.5% | viability at 24 h, 5 μg/mL ([7]; PNT-2 prostate epithelial cells, 5 μg/mL): 97.49 ± 0.79% | viability at 24 h, 20 μg/mL ([7]; PNT-2 prostate epithelial cells, 20 μg/mL): 96.3 ± 1.04% | viability at 24 h, 30 μg/mL ([7]; PNT-2 prostate epithelial cells, 30 μg/mL): 95.64 ± 0.65% | viability at 24 h, 40 μg/mL ([7]; PNT-2 prostate epithelial cells, 40 μg/mL): 95.37 ± 0.75% | viability at 24 h, 50 μg/mL ([7]; PNT-2 prostate epithelial cells, 50 μg/mL): 94.56 ± 0.32% | IC50 [8]: > 100 µg/mL | viability at 24 h, 5 μg/mL ([9]; 5 μg/mL): 97.3 ± 0.27% | viability at 24 h, 10 μg/mL ([9]; 10 μg/mL): 94.54 ± 0.58% | viability at 24 h, 20 μg/mL ([9]; 20 μg/mL): 90.07 ± 0.71% | viability at 24 h, 30 μg/mL ([9]; 30 μg/mL): 83.2 ± 1.24% | viability at 24 h, 40 μg/mL ([9]; 40 μg/mL): 77.1 ± 1.63% | viability at 24 h, 50 μg/mL ([9]; 50 μg/mL): 68.6 ± 1.78% | viability at 24 h, 100 μg/mL ([9]; 100 μg/mL): 57.3 ± 1.9% | IC50 [10]: > 100 µg/mL | viability at 24 h, 100 μg/mL ([11]; HaCaT immortalized keratinocytes, 100 μg/mL): 54.3 ± 1.78% | viability at 24 h, 5 μg/mL ([11]; HaCaT keratinocytes, 5 μg/mL): 96.84 ± 0.6% | viability at 24 h, 10 μg/mL ([11]; HaCaT keratinocytes, 10 μg/mL): 94.5 ± 1.55% | viability at 24 h, 20 μg/mL ([11]; HaCaT keratinocytes, 20 μg/mL): 90.6 ± 0.66% | viability at 24 h, 30 μg/mL ([11]; HaCaT keratinocytes, 30 μg/mL): 82.8 ± 1.23% | viability at 24 h, 40 μg/mL ([11]; HaCaT keratinocytes, 40 μg/mL): 75.7 ± 1.76% | viability at 24 h, 50 μg/mL ([11]; HaCaT keratinocytes, 50 μg/mL): 61.8 ± 1.55% | IC50 [12]: > 100 µg/mL | viability at 24 h, 5 μg/mL ([13]; 5 μg/mL): 97.28 ± 0.33% | viability at 24 h, 10 μg/mL ([13]; 10 μg/mL): 95.28 ± 0.9% | viability at 24 h, 20 μg/mL ([13]; 20 μg/mL): 91.1 ± 1.39% | viability at 24 h, 30 μg/mL ([13]; 30 μg/mL): 87.3 ± 1.5% | viability at 24 h, 40 μg/mL ([13]; 40 μg/mL): 82.6 ± 1.36% | viability at 24 h, 50 μg/mL ([13]; 50 μg/mL): 76.2 ± 1.78% | viability at 24 h, 100 μg/mL ([13]; 100 μg/mL): 67.6 ± 1.48%
